As a reminder, the ED50 is the dose at which the effect has come halfway, by size or by number of responders.

One test concerns Mus musculus. Nature of the test: Analgesic activity by mouse writhing test after subcutaneous injection. It counts as functional. (In general: An intraperitoneal irritant provokes the stretching counted in writhing tests.)
In the next test the test system is Rattus norvegicus. Nature of the test: Narcotic antagonist activity was measured by rat tail flick procedure after the drug was injected intraperitoneally. It counts as functional.
Where [1] appears, read: Mus musculus, sc, read-out: ED50.

Consider `COc1ccc2c(c1)C13CCN(CC4CCC4)C(C2)C1CCC(=O)C3` (trans isomer), for which the median effective dose (ED50) with Mus musculus was 6.9 mg/kg. Turning to `CCOC(=O)[C@@H]1CC2C3Cc4ccc(O)cc4C2(CCN3CC2CC2)CC1=O` (some centres not stated), the ED50 in the test with Mus musculus (setting [1]) is 4.9 mg/kg.

Turning to `COc1ccc2c(c1)C13CCN(C)C(C2)[C@@H]1CCC(=O)C3` (some centres not stated), the median effective dose (ED50) with Mus musculus (setting [1]) stood at 0.49 mg/kg.

As for `O=C1CCC2C3Cc4ccc(O)cc4C2(CCN3CC2CC2)C1` (stereo in doubt; 9Ca), in the test on Mus musculus, the median effective dose (ED50) was 1.02 mg/kg. In addition, the AD50 in the test with Rattus norvegicus is 2.3 mg/kg. The corresponding values for `COc1ccc2c(c1)C13CCN(CC4CC4)C(C2)C1CCC(=O)C3` (stereo in doubt; 5Cc) are 0.24 mg/kg and more than 3 mg/kg.

For the compound `CN1CC[C@]23c4c5ccc(O)c4O[C@H]2[C@@H](O)C=C[C@H]3[C@H]1C5.CN1CC[C@]23c4c5ccc(O)c4O[C@H]2[C@@H](O)C=C[C@H]3[C@H]1C5.O=S(=O)(O)O`, the 50% effective dose (ED50) in the test with Mus musculus (setting [1]) was found to be 0.8 mg/kg.

Turning to `CCOC(=O)[C@@H]1CC2C3Cc4ccc(O)cc4C2(CCN3C)CC1=O` (some centres not stated), the 50% effective dose (ED50) in the test with Mus musculus (setting [1]) was 0.72 mg/kg. `COc1ccc2c(c1)C13CCN(CC4CCC4)C(C2)C1CCC(=O)C3` (stereo in doubt; 5Cd) came in with an ED50 in the test on Mus musculus of 0.22 mg/kg. Besides, the AD50 with Rattus norvegicus is more than 10 mg/kg. On to `CCOC(=O)[C@H]1CC2C3Cc4ccc(OC)cc4C2(CCN3C)CC1=O` (some centres not stated), for which, in the test on Mus musculus (setting [1]), the 50% effective dose (ED50) was more than 10 mg/kg. Consider `CN1CCC23CC(=O)CC[C@@H]2C1Cc1ccc(O)cc13` (some centres not stated), for which the median effective dose (ED50) in the test with Mus musculus (setting [1]) was 0.23 mg/kg. On to `CCOC(=O)[C@@H]1CC2C3Cc4ccc(O)cc4C2(CCN3CC2CCC2)CC1=O` (some centres not stated), for which, in the test on Rattus norvegicus, the AD50 was more than 10 mg/kg. Take `CC(C)(O)[C@H]1CC2C3Cc4ccc(O)cc4C2(CCN3CC2CC2)C[C@H]1O` (some centres not stated): in the test on Mus musculus (setting [1]), the ED50 was more than 10 mg/kg. In addition, the AD50 in the test with Rattus norvegicus was more than 10 mg/kg. Turning to `COc1ccc2c(c1)C13CCN(C)C(C2)[C@H]1CCC(=O)C3` (some centres not stated), the ED50 with Mus musculus (setting [1]) worked out at 1.58 mg/kg.

In the case of `CCOC(=O)[C@@H]1CC2C3Cc4ccc(OC)cc4C2(CCN3CC2CCC2)CC1=O` (some centres not stated), in the test on Mus musculus (setting [1]), the median effective dose (ED50) is more than 10 mg/kg. Moreover, the AD50 in the test on Rattus norvegicus is more than 3 mg/kg.

As to `CC(C)=CCN1CC[C@]2(C)c3cc(O)ccc3C[C@H]1[C@H]2C` [(+)-PENTAZOCINE], the 50% effective dose (ED50) in the test with Mus musculus (setting [1]) amounted to 3.7 mg/kg. The same compound had an AD50 in the test on Rattus norvegicus of 10.4 mg/kg. For the compound `CCOC(=O)[C@@H]1CC2C3Cc4ccc(OC)cc4C2(CCN3C)CC1=O` (some centres not stated), in the test with Mus musculus (setting [1]), the ED50 was 4.6 mg/kg.

Turning to `COc1ccc2c(c1)C13CCN(CC4CC4)C(C2)C1CCC(=O)C3` (trans isomer), the ED50 in the test with Mus musculus is more than 10 mg/kg. The same compound had an AD50 with Rattus norvegicus of 1.3 mg/kg. `CCOC(=O)[C@@H]1CC2C3Cc4ccc(OC)cc4C2(CCN3CC2CC2)CC1=O` (some centres not stated): the ED50 in the test on Mus musculus (setting [1]) was more than 10 mg/kg. The same compound returned an AD50 in the test with Rattus norvegicus of more than 3 mg/kg.

`CCOC(=O)[C@H]1CC2C3Cc4ccc(OC)cc4C2(CCN3CC2CC2)CC1=O` (some centres not stated): the median effective dose (ED50) in the test on Mus musculus (setting [1]) was more than 10 mg/kg. In the test on Rattus norvegicus, this compound returned an AD50 of more than 10 mg/kg.

In turn, `O=C1CCC2C3Cc4ccc(O)cc4C2(CCN3CC2CC2)C1` (trans isomer) registered an ED50 in the test on Mus musculus of more than 10 mg/kg. The AD50 in the test on Rattus norvegicus was 0.78 mg/kg. As for `CC(C)(O)[C@@H]1CC2C3Cc4ccc(O)cc4C2(CCN3CC2CC2)C[C@@H]1O` (some centres not stated), the 50% effective dose (ED50) in the test with Mus musculus (setting [1]) is 6.9 mg/kg. This compound also returned an AD50 in the test with Rattus norvegicus of more than 10 mg/kg. In the test on Rattus norvegicus, `C=CCN1CC[C@]23c4c5ccc(O)c4O[C@H]2[C@@H](O)C=C[C@H]3[C@H]1C5` [NALORPHINE] had an AD50 of 0.86 mg/kg. As for `CN1CCC23CC(=O)CC[C@H]2C1Cc1ccc(O)cc13` (some centres not stated), in the test with Mus musculus (setting [1]), the ED50 was 0.15 mg/kg. For `O=C1CCC2C3Cc4ccc(O)cc4C2(CCN3CC2CCC2)C1` (cis isomer), the ED50 with Mus musculus (setting [1]) worked out at 0.017 mg/kg. The AD50 in the test on Rattus norvegicus was more than 10 mg/kg. As for `CCOC(=O)[C@H]1CC2C3Cc4ccc(O)cc4C2(CCN3C)CC1=O` (some centres not stated), the median effective dose (ED50) in the test with Mus musculus (setting [1]) was 0.6 mg/kg.

Values taken from ChEMBL document CHEMBL1122200, “Novel opiates and antagonists. 5. 7-Carbethoxy-N-(cycloalkylmethyl)-3-hydroxymorphinan-6-ones and -isomorphinan-6-ones” (1982).
